*1 amine or outer side, *2 acyl side, *3 side chain or, on linkers, in order; H or OH if unused. Where a SMILES comes first, the peptide text is derived from it. [ ]: non-standard residue; d: D form. ξ: configuration not given here. β2hAla(2S) = C[C@@H](CN[*:1])C(=O)[*:2]; ξβ2hAla = CC(CN[*:1])C(=O)[*:2]

Assay [1] deals with T1, Relaxin receptor 1 (Homo sapiens) (UniProt Q9HBX9).
T1 sequence (whole entry): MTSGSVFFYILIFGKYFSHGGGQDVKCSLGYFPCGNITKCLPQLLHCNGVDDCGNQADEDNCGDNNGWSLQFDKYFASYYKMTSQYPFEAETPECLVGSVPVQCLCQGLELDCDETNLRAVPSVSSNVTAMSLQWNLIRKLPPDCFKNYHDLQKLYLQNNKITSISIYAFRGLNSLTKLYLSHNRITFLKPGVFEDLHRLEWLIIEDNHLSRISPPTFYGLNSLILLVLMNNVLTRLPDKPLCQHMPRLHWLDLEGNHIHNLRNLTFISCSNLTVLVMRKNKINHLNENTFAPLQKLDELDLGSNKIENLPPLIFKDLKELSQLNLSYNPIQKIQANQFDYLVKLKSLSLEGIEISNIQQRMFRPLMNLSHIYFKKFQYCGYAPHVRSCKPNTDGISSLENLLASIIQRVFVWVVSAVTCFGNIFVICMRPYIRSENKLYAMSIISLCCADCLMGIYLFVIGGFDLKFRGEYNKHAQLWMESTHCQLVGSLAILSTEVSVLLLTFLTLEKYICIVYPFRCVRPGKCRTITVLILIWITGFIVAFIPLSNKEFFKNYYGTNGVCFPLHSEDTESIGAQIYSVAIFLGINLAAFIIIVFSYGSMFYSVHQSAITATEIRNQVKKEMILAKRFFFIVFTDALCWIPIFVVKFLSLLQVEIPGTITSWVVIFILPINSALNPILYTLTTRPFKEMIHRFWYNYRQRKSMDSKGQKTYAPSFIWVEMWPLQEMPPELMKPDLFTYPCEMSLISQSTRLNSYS
The assay can be described thus: Agonist activity at RXFP1 endogenously expressed in human OVCAR-5 cells assessed as increase in IBMX-induced cAMP accumulation pretreated with IBMX for 40 mins followed by compound addition and measured after 30 mins by HTRF assay relative to relaxin. The assay is classed as functional, cell-based. To be noted: filed as agonist.

Another assay addresses T2, Relaxin receptor 1 (Homo sapiens, UniProt Q9HBX9).
T2 sequence (Q9HBX9 whole entry): T1 sequence (whole entry)
The assay can be described thus: Agonist activity at RXFP1 endogenously expressed in human OVCAR-5 cells assessed as increase in IBMX-induced cAMP accumulation pretreated with IBMX for 40 mins followed by compound addition and measured after 30 mins by HTRF assay. The assay is classed as functional, cell-based.

`CC[C@H](C)[C@H](NC(=O)[C@H](CCC(N)=O)NC(=O)[C@H](C)NC(=O)[C@H](CCCNC(=N)N)NC(=O)[C@@H](NC(=O)[C@H](CCCCN)NC(=O)[C@H](CCC(=O)O)NC(=O)[C@H](CCCNC(=N)N)NC(=O)CNC(=O)[C@H](CCC(=O)O)NC(=O)[C@H](CC(C)C)NC(=O)[C@H](CCCCN)NC(=O)[C@@H](NC(=O)[C@@H](NC(=O)[C@H](CCC(=O)O)NC(=O)[C@H](CCC(=O)O)NC(C)=O)C(C)C)[C@@H](C)CC)C(C)C)C(=O)NCC(C)C(=O)NCC(C)C(=O)N[C@@H](CCC(=O)O)C(=O)NCC(=O)N[C@@H](CCSC)C(=O)N[C@@H](CO)C(=O)N[C@@H](CCCCN)C(=O)N[C@@H](Cc1c[nH]c2ccccc12)C(=O)N[C@@H](CO)C(=O)NC[C@H](C)C(=O)N[C@@H](CCCNC(=N)N)C(=O)N[C@@H](CCCCN)C(=O)N[C@@H](CCCCN)C(=O)O` (stereo partly drawn) (Ac-EEVIKLEGREKVRAQI[ξβ2hAla][ξβ2hAla]EGMSKWS[β2hAla(2S)]RKK-OH): in assay [1], the Emax worked out at 95%. Also, the EC50 on Relaxin receptor 1 was found to be 17 nM.
On the same counts, the results for `CC[C@H](C)[C@H](NC(=O)[C@H](CCC(N)=O)NC(=O)[C@H](C)NC(=O)[C@H](CCCNC(=N)N)NC(=O)[C@@H](NC(=O)[C@H](CC(C)C)NC(=O)[C@H](CCC(=O)O)NC(=O)[C@H](CCCNC(=N)N)NC(=O)CNC(=O)[C@H](CO)NC(=O)[C@H](CC(C)C)NC(=O)[C@H](CCCCN)NC(=O)[C@@H](NC(=O)[C@@H](NC(=O)[C@H](CCC(=O)O)NC(=O)[C@H](CCC(=O)O)NC(C)=O)C(C)C)[C@@H](C)CC)C(C)C)C(=O)N[C@@H](C)C(=O)NC[C@H](C)C(=O)N[C@@H](CO)C(=O)NCC(=O)N[C@@H](CCSC)C(=O)N[C@@H](CO)C(=O)N[C@H](C(=O)N[C@@H](Cc1c[nH]c2ccccc12)C(=O)N[C@@H](CO)C(=O)N[C@@H](CCCCN)C(=O)N[C@@H](CCCNC(=N)N)C(=O)N[C@@H](CO)C(=O)N[C@@H](CC(C)C)C(N)=O)[C@@H](C)O` (HELM PEPTIDE1{[ac].E.E.V.I.K.L.S.G.R.E.L.V.R.A.Q.I.A.[C[C@@H](CN[*:1])C(=O)[*:2]].S.G.M.S.T.W.S.K.R.S.L.[am]}$$$$V2.0) are 91% and 200 nM.
On the same counts, the results for `CC[C@H](C)[C@H](NC(=O)[C@H](CCC(N)=O)NC(=O)[C@H](C)NC(=O)[C@H](CCCNC(=N)N)NC(=O)[C@@H](NC(=O)[C@H](CC(C)C)NC(=O)[C@H](CCC(=O)O)NC(=O)[C@H](CCCNC(=N)N)NC(=O)CNC(=O)[C@H](CO)NC(=O)[C@H](CC(C)C)NC(=O)[C@H](CCCCN)NC(=O)[C@@H](NC(=O)[C@@H](NC(=O)[C@H](CCC(=O)O)NC(=O)[C@H](CCC(=O)O)NC(C)=O)C(C)C)[C@@H](C)CC)C(C)C)C(=O)NC[C@H](C)C(=O)N[C@H](C(=O)N[C@@H](CO)C(=O)NCC(=O)N[C@@H](CCSC)C(=O)N[C@@H](CO)C(=O)N[C@H](C(=O)N[C@@H](Cc1c[nH]c2ccccc12)C(=O)N[C@@H](CO)C(=O)N[C@@H](CCCCN)C(=O)N[C@@H](CCCNC(=N)N)C(=O)N[C@@H](CCCCN)C(=O)N[C@@H](CCCCN)C(N)=O)[C@@H](C)O)[C@@H](C)CC` (HELM PEPTIDE1{[ac].E.E.V.I.K.L.S.G.R.E.L.V.R.A.Q.I.[C[C@@H](CN[*:1])C(=O)[*:2]].I.S.G.M.S.T.W.S.K.R.K.K.[am]}$$$$V2.0) are 94% and 143 nM.

The values are drawn from ChEMBL document CHEMBL4732190, “Identification of Potent and Long-Acting Single-Chain Peptide Mimetics of Human Relaxin-2 for Cardiovascular Diseases” (J Med Chem, 2021).
